Patent US20020025331A1, “Cosmetic compositions containing substituted amine derivatives” (priority 2000, published 2002)
Where two headings read alike, the source gives them in different places.

System: human sebocytes
Experiment: Sebum suppression in cultured human sebocytes (14C-acetate incorporation), alone or with retinol
Assay type: cell-based
Details: for sebum suppressive activity (in words): agent alone, summary of Tables 1-6
Protocol: Compounds A through E were tested for their potential to suppress sebum expression, alone or in the presence of a retinoid.
Secondary cultures of human sebocytes obtained from an adult […] were grown in 48-well tissue culture plates (Costar Corp.; Cambridge, MA) or 96-well tissue culture plates (Packard Co.; Meriden, CT) until confluent.
Sebocyte growth medium consisted of Clonetics Keratinocyte Basal Medium (KBM) supplemented with 14 μg/ml bovine pituitary extract, 0.4 μg/ml hydrocortisone, 5 μg/ml insulin, […], 1.2 ×10^-10 M cholera toxin, 100 units/ml penicillin, and 100 μg/ml streptomycin.
All cultures were incubated at 37° C. in the presence of 7.5% CO2. Medium was changed three times per week.
On the day of experimentation, the growth medium was removed and the sebocytes washed three times with sterile Dulbecco's Modified Eagle Medium (DMEM; phenol red free). Fresh DMEM was added to each sample (duplicates, triplicates, or quadruplicates depending on the experiment) with 5 microliter of test agent solubilized in ethanol either alone or in the presence of one or 10 micromolar of retinol. Controls consisted of addition of ethanol alone, retinol alone, or phenol red, which has estrogen-like activity and is included as a positive control.
Each plate was returned to the incubator for 20 hours followed by the addition of 14C-acetate buffer (5 mM final concentration, 56 mCi/mmol specific activity). Sebocytes were returned to the incubator for four hours after which each culture was rinsed three times with phosphate buffered saline to remove unbound label. Radioactive label remaining in the sebocytes was harvested and counted using a Beckman scintillation counter.

SMILES: CSc1ccc(NC(C)CC(c2ccccc2)c2c(O)c3ccccc3oc2=O)cc1 (centres unmarked) [Compound A]
- % of Control (Experiment A, 1 μM test agent + 10 μM Retinol): 94.3%
- % of Control (Experiment A, 1 μM test agent alone): 93.8%
- % of Control (Experiment A, 10 μM test agent + 10 μM Retinol): 88.6%
- % of Control (Experiment A, 10 μM test agent alone): 78.1%
- % of Control (Experiment A, 100 μM test agent + 10 μM Retinol): 6.2%
- % of Control (Experiment A, 100 μM test agent alone): 12.5%
- % of Control (Experiment B (n = 3), 1 μM test agent + 1 μM Retinol): 93.3%
- % of Control (Experiment B (n = 3), 1 μM test agent + 10 μM Retinol): 85.4%
- % of Control (Experiment B (n = 3), 1 μM test agent alone): 102.1%
- % of Control (Experiment B (n = 3), 10 μM test agent + 1 μM Retinol): 80.2%
- % of Control (Experiment B (n = 3), 10 μM test agent + 10 μM Retinol): 78.6%
- % of Control (Experiment B (n = 3), 10 μM test agent alone): 89.4%
- % of Control (Experiment B (n = 3), 100 μM test agent + 1 μM Retinol): 19.7%
- % of Control (Experiment B (n = 3), 100 μM test agent + 10 μM Retinol): 26.5%
- % of Control (Experiment B (n = 3), 100 μM test agent alone): 23.5%
- sebum suppressive activity (in words): had sebum suppressive activity

SMILES: COc1ccc(OC)c(C(C)NC/C=C(\C)CCC=C(C)C)c1 (centres unmarked) [Compound C]
- % of Control (96 Well Plate (n = 2), 10 μM test agent + 1 μM Retinol): 45.2%
- % of Control (96 Well Plate (n = 2), 10 μM test agent alone): 72.3%
- % of Control (96 Well Plate (n = 2), 50 μM test agent + 1 μM Retinol): 0.3%
- % of Control (96 Well Plate (n = 2), 50 μM test agent alone): 34.2%
- sebum suppressive activity (in words): had sebum suppressive activity
- sebum suppressive activity when combined with retinol / a retinoid (in words) (in the presence of a retinoid (retinol)): improved sebum suppressive activity

SMILES: O=S1(=O)OC(c2ccc(O)cc2)(c2ccc(O)cc2)c2ccccc21 [Phenol Red, reference compound]
- activity at 28 µM (Homo sapiens, Experiment B (n = 3), 28 μM alone, read-out: % of Control): 86.4%
- activity at 280 µM (Homo sapiens, Experiment B (n = 3), 280 μM alone, read-out: % of Control): 52.2%
- % Reduction (Table 3 (n = 4), 28 μM alone): 74.7%

SMILES: CC1=C(/C=C/C(C)=C/C=C/C(C)=C/C=O)C(C)(C)CCC1 [Retinal, reference compound]
- activity at 1 µM (Homo sapiens, Experiment B (n = 3), 1 μM test agent alone, read-out: % of Control): 104%
- activity at 10 µM (Homo sapiens, Experiment B (n = 3), 10 μM test agent alone, read-out: % of Control): 101%

SMILES: CC1=C(/C=C/C(C)=C/C=C/C(C)=C/CO)C(C)(C)CCC1 [Retinol, reference compound]
- activity at 10 µM (Homo sapiens, Experiment A, 10 μM test agent alone, read-out: % of Control): 98.3%
- sebum suppressive activity (in words): inactive
